Data from publication PMC6233306 (Bioorganic & medicinal chemistry letters, 2018).
Converted amounts (≈) assume the structure as drawn.

Legend:
[1] = Chemical stability of coumarin core towards organic bases; format: physicochemical; conditions: prolonged time at ambient temperature; gives equimolar ring-opened product 5
Mtb H37Rv = Mtb H37Rv growth inhibition; format: cell-based, Mycobacterium tuberculosis; conditions: for MIC90: Mycobacterium tuberculosis, H37RV, read-out: Mtb H37Rv MIC90; for MICs: in words
[2] = Kinetic aqueous solubility; format: physicochemical; conditions: pH 7.4, water, kinetic from dmso stock

Cc1cc2oc(=O)cc(-c3ccc(F)cc3)c2c(C)c1-c1ccc(CN2CCOCC2)cc1 [Compound 4]
stability towards organic bases such as morpholine [1]: not stable

Cc1cc2nccc(-c3ccccc3)c2c(C)c1-c1ccc(CN2CCOCC2)cc1 [Compound 8]
MIC90 (Mtb H37Rv): 0.45 µM (≈ 0.184 µg/mL)

Cc1cc2nccc(-c3ccccc3Cl)c2c(C)c1-c1ccc(CN2CCOCC2)cc1 [Compound 15a]
MIC90 (Mtb H37Rv): 0.3 µM (≈ 0.133 µg/mL)

Cc1cc2nccc(-c3cccc(Cl)c3)c2c(C)c1-c1ccc(CN2CCOCC2)cc1 [Compound 15b]
MIC90 (Mtb H37Rv): 1.5 µM (≈ 0.664 µg/mL)

Cc1cc2nccc(-c3ccc(Cl)cc3)c2c(C)c1-c1ccc(CN2CCOCC2)cc1 [Compound 15c]
MIC90 (Mtb H37Rv): > 80 µM

Cc1cc2nccc(-c3ccccc3C#N)c2c(C)c1-c1ccc(CN2CCOCC2)cc1 [Compound 15d]
MIC90 (Mtb H37Rv): 2.5 µM (≈ 1.08 µg/mL)

CCc1ccccc1CNc1ccnc2cc(C)c(-c3ccc(CN4CCOCC4)cc3)c(C)c12 [Compound 15e]
MIC90 (Mtb H37Rv): 2.5 µM (≈ 1.16 µg/mL)

Cc1cc2nccc(-c3ccccc3C(=O)O)c2c(C)c1-c1ccc(CN2CCOCC2)cc1 [Compound 15f]
MIC90 (Mtb H37Rv): 40 µM (≈ 18.1 µg/mL)

Cc1cc2nccc(-c3ccccc3C(N)=O)c2c(C)c1-c1ccc(CN2CCOCC2)cc1 [Compound 15g]
MIC90 (Mtb H37Rv): 20 µM (≈ 9.03 µg/mL)

COc1cccc(-c2ccnc3cc(C)c(-c4ccc(CN5CCOCC5)cc4)c(C)c23)c1Cl [Compound 15h]
MIC90 (Mtb H37Rv): 10 µM (≈ 4.73 µg/mL)

Cc1cc2nccc(-c3cccnc3)c2c(C)c1-c1ccc(CN2CCOCC2)cc1 [Compound 15j]
solubility kinetic [2]: > 150 µM

COc1ccncc1-c1ccnc2cc(C)c(-c3ccc(CN4CCOCC4)cc3)c(C)c12 [Compound 15k]
MIC90 (Mtb H37Rv): 2.5 µM (≈ 1.1 µg/mL)

COc1ncccc1-c1ccnc2cc(C)c(-c3ccc(CN4CCOCC4)cc3)c(C)c12 [Compound 15l]
MIC90 (Mtb H37Rv): 2.5 µM (≈ 1.1 µg/mL)

Cc1cc2nccc(-c3ccnn3C)c2c(C)c1-c1ccc(CN2CCOCC2)cc1 [Compound 15m]
MIC90 (Mtb H37Rv): 2.5 µM (≈ 1.03 µg/mL)
solubility kinetic [2]: > 150 µM

Cc1cc2nccc(-c3cncnc3)c2c(C)c1-c1ccc(CN2CCOCC2)cc1 [Compound 15n]
MIC90 (Mtb H37Rv): 2.5 µM (≈ 1.03 µg/mL)
solubility kinetic [2]: > 150 µM

Cc1cc2nccc(-c3ccccc3Cl)c2c(C)c1-c1ccncc1 [Compound 15p]
MIC90 (Mtb H37Rv): 5 µM (≈ 1.72 µg/mL)

CCOC(=O)c1cc(-c2ccccc2Cl)c2c(C)c(-c3ccncc3)c(C)cc2n1 [Compound 18]
MIC90 (Mtb H37Rv): 10 µM (≈ 4.17 µg/mL)

Cc1cc2nc(CO)cc(-c3ccccc3Cl)c2c(C)c1-c1ccncc1 [Compound 19]
MIC90 (Mtb H37Rv): 3.75 µM (≈ 1.41 µg/mL)

Cc1cc2nc(C(C)(C)O)cc(-c3ccccc3Cl)c2c(C)c1-c1ccncc1 [Compound 20]
MIC90 (Mtb H37Rv): > 40 µM

Cc1cc2nc(C(N)=O)cc(-c3ccccc3Cl)c2c(C)c1-c1ccncc1 [Compound 21a]
MIC90 (Mtb H37Rv): 1.25 µM (≈ 0.485 µg/mL)

CNC(=O)c1cc(-c2ccccc2Cl)c2c(C)c(-c3ccncc3)c(C)cc2n1 [Compound 21b]
MIC90 (Mtb H37Rv): 0.8 µM (≈ 0.322 µg/mL)
MICs (Mtb H37Rv): sub-micromolar
CFU reduction (H37Rv; lung, once-daily oral, dose-dependent, up to 50 mg/kg, 8-day acute model): ~4 log CFU
tolerability (H37Rv; mice, up to the highest dose of 50 mg/kg): no tolerability issue observed

Cc1cc2nc(C(=O)NC(C)C)cc(-c3ccccc3Cl)c2c(C)c1-c1ccncc1 [Compound 21c]
MIC90 (Mtb H37Rv): 2.5 µM (≈ 1.07 µg/mL)

Cc1cc2nc(C(=O)NCCF)cc(-c3ccccc3Cl)c2c(C)c1-c1ccncc1 [Compound 21d]
MIC90 (Mtb H37Rv): 1.25 µM (≈ 0.542 µg/mL)

Cc1cc2nc(C(=O)NCCO)cc(-c3ccccc3Cl)c2c(C)c1-c1ccncc1 [Compound 21e]
MIC90 (Mtb H37Rv): 0.3 µM (≈ 0.13 µg/mL)
MICs (Mtb H37Rv): sub-micromolar

Cc1cc2nc(C(=O)NCCN(C)C)cc(-c3ccccc3Cl)c2c(C)c1-c1ccncc1 [Compound 21f]
MIC90 (Mtb H37Rv): 0.3 µM (≈ 0.138 µg/mL)
MICs (Mtb H37Rv): sub-micromolar

Cc1cc2nc(C(=O)N3CCCC3)cc(-c3ccccc3Cl)c2c(C)c1-c1ccncc1 [Compound 23b]
MIC90 (Mtb H37Rv): 5 µM (≈ 2.21 µg/mL)
